Read-outs that look alike come from different tables or passages of the source. Where a SMILES comes first, the peptide text is derived from it. Bridges are numbered along the chain shown (N, C = ends). Where no end group is shown, it is not given here. [ ]: non-standard residue; d: D form. pGlu = O=C1CC[C@@H](C(=O)O)N1
Assays:
[1] = biological target: mouse melanocortin 4 receptor fused to EGFP (mouse) (UniProt P56450)
[2] = biological target: T1, mouse melanocortin 4 receptor (MC4R) (Mus musculus, UniProt P56450); assay: cAMP second messenger quantification assay (Cisbio HTRF cAMP Gs kit); type: cell-based
T1 construct: expressed in transfected cells; host or cells: HEK293 / HEK293T, transient transfection
Method: Figure 3 Functional cAMP assay of synthesized peptide analogues targeting MC4R. The accumulation of adenylyl cyclase-catalyzed cAMP of (A) tachylplesin-1-like peptides (Ta1LPs, green), (B) protegrin-4-like peptides ([…], pink), (C) arenicin-3-like peptides (Ar3LPs, orange), and (D) gomesin-like peptides (GoLPs, blue) was measured in HEK293 cells transiently expressing mouse melanocortin 4 receptor (MC4R). […] Data are from three independent experiments and are shown as mean ± SEM.
Assays were performed on cells transiently expressing mouse MC4R-EGFP. BamHI and SacI restriction sites were used to clone mouse MC4R N-terminally into a pEGFP-N1 vector. Peptide ligands were assayed for […] in a 384-well format and triplicate according to the Cisbio protocol. Briefly, 5 μL containing 10,000 cells per well was incubated with 5 μL of peptide solutions prepared 2× in 1× stimulation buffer. Following an incubation of peptide ligands at 37 °C for 30 min, d2-labeled cAMP and cryptate-labeled antibody (5 μL of each) were added to the mixture and further incubated for at least 1 h at room temperature. Subsequently, cAMP levels were quantified on a Flexstation 3 (Molecular Devices, San Jose, USA) using homogeneous time-resolved fluorescence resonance energy transfer and the ratio 665/620 nm. Samples were measured in technical triplicates.
Data analysis was performed with GraphPad Prism (GraphPad Software, San Diego). The potency (EC50) and maximum efficacy (Emax) values of peptide ligands were derived from functional data fitted to three- or four-parameter nonlinear regression curves constrained to a bottom of zero.

[3] = HEK293, read-out: efficacy cAMP Emax ± SD

T1 sequence (P56450 whole entry): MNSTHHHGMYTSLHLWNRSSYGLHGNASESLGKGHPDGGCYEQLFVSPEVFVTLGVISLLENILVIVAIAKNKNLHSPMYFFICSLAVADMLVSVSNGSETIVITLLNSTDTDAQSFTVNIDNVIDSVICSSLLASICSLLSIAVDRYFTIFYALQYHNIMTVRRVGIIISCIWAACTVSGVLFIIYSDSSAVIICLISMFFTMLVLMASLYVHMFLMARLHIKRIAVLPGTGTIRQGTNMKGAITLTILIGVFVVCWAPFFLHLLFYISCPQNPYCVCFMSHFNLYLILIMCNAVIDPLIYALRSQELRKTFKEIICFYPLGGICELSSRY
mouse melanocortin 4 receptor fused to EGFP (mouse), sequence (P56450 whole entry, the tested form may be a part): as the sequence (P56450 whole entry) above

## NDP-α-MSH (peptide)
[1]
  cAMP accumulation (Cisbio HTRF) in HEK293 cells transiently expressing mouse MC4R-EGFP: EC50: 0.04 nM
  cAMP accumulation (Cisbio HTRF) in HEK293 cells transiently expressing mouse MC4R-EGFP: Emax (normalised to NDP-α-MSH): 100%

## CC(C)[C@@H]1NC(=O)[C@H](CCCNC(=N)N)NC(=O)[C@H](Cc2ccccc2)NC(=O)[C@@H](NC(=O)[C@H](Cc2c[nH]c3ccccc23)NC(=O)[C@@H](N)CCCCN)CSSC[C@@H](C(=O)N[C@@H](CCCNC(=N)N)C(N)=O)NC(=O)[C@H](CCCNC(=N)N)NC(=O)[C@H](CCCNC(=N)N)NC(=O)[C@H](Cc2ccc(O)cc2)NC(=O)[C@@H]2CSSC[C@H](NC1=O)C(=O)N[C@@H](Cc1c[nH]cn1)C(=O)N[C@H](Cc1ccccc1)C(=O)N[C@@H](CCCNC(=N)N)C(=O)N[C@@H](Cc1c[nH]c3ccccc13)C(=O)N2 [Ta1LP3] (H-KWCFRVCH[dF]RWCYRRCR-NH2; disulfide 3-16, 7-12)
[2]
  EC50: 16.7 nM
[2]; [3]
  Emax: 98 ± 4%

## CC(C)[C@@H]1NC(=O)[C@H](CCCNC(=N)N)NC(=O)[C@H](Cc2c[nH]c3ccccc23)NC(=O)[C@H](Cc2c[nH]cn2)NC(=O)[C@@H](Cc2ccccc2)NC(=O)[C@H](Cc2c[nH]cn2)NC(=O)[C@@H]2CCCN2C(=O)[C@H](C(C)C)NC(=O)[C@@H]2CSSC[C@H](NC1=O)C(=O)N[C@@H](Cc1ccc(O)cc1)C(=O)N[C@@H](CCCNC(=N)N)C(=O)N[C@@H](CCCNC(=N)N)C(=O)N[C@H](C(=O)N[C@@H](CC(N)=O)C(N)=O)CSSC[C@H](NC(=O)[C@H](Cc1ccccc1)NC(=O)CN)C(=O)N[C@@H](Cc1c[nH]c3ccccc13)C(=O)N[C@@H](Cc1ccc(O)cc1)C(=O)N[C@@H](C(C)C)C(=O)N2 [Ar3LP3] (H-GFCWYVCVPH[dF]HWRVCYRRCN-NH2; disulfide 3-20, 7-16)
[2]
  EC50: 1000 nM
[2]; HEK293; read-out: efficacy cAMP Emax ± SD
  Emax: 117 ± 18%

## CC(C)C[C@H](NC(=O)[C@H](CCCNC(=N)N)NC(=O)CNC(=O)CNC(=O)[C@@H](N)CCCNC(=N)N)C(=O)N[C@H]1CSSC[C@@H](C(=O)N[C@H](C(=O)NCC(=O)N[C@@H](CCCNC(=N)N)C(N)=O)C(C)C)NC(=O)[C@H](Cc2ccccc2)NC(=O)[C@@H]2CSSC[C@H](NC(=O)[C@H](Cc3ccc(O)cc3)NC1=O)C(=O)N[C@@H](Cc1c[nH]cn1)C(=O)N[C@H](Cc1ccccc1)C(=O)N[C@@H](Cc1c[nH]cn1)C(=O)N[C@@H](Cc1c[nH]c3ccccc13)C(=O)N2 [Pr4LP2] (H-RGGRLCYCH[dF]HWCFCVGR-NH2; disulfide 6-15, 8-13)
[2]
  EC50: 158 nM
[2]; [3]
  Emax: 97 ± 4%

## CC(C)[C@@H]1NC(=O)[C@H](CCCNC(=N)N)NC(=O)[C@H](Cc2ccccc2)NC(=O)[C@@H](NC(=O)[C@H](Cc2c[nH]c3ccccc23)NC(=O)[C@@H](N)CCCCN)CSSC[C@@H](C(=O)N[C@@H](CCCNC(=N)N)C(N)=O)NC(=O)[C@H](CCCNC(=N)N)NC(=O)[C@H](CCCNC(=N)N)NC(=O)[C@H](Cc2ccc(O)cc2)NC(=O)[C@@H]2CSSC[C@H](NC1=O)C(=O)N[C@@H](Cc1c[nH]cn1)C(=O)N[C@H](Cc1ccccc1)C(=O)N[C@@H](Cc1c[nH]cn1)C(=O)N[C@@H](Cc1c[nH]c3ccccc13)C(=O)N2 [Ta1LP2] (H-KWCFRVCH[dF]HWCYRRCR-NH2; disulfide 3-16, 7-12)
[2]
  EC50: 50.1 nM
[2]; [3]
  Emax: 97 ± 6%

## CC(C)C[C@@H]1NC(=O)[C@H](CCCNC(=N)N)NC(=O)[C@H](CCCNC(=N)N)NC(=O)[C@@H](NC(=O)[C@@H]2CCC(=O)N2)CSSC[C@@H](C(=O)N[C@@H](CCCNC(=N)N)C(=O)NCC(=O)N[C@@H](CCCNC(=N)N)C(N)=O)NC(=O)[C@H](Cc2ccc(O)cc2)NC(=O)[C@H]([C@@H](C)O)NC(=O)[C@H](C(C)C)NC(=O)[C@@H]2CSSC[C@H](NC1=O)C(=O)N[C@@H](Cc1c[nH]cn1)C(=O)N[C@H](Cc1ccccc1)C(=O)N[C@@H](CCCNC(=N)N)C(=O)N[C@@H](Cc1c[nH]c3ccccc13)C(=O)N2 [GoLP3] ([pGlu]CRRLCH[dF]RWCVTYCRGR-NH2; disulfide 2-15, 6-11)
[2]
  EC50: 39.8 nM
[2]; [3]
  Emax: 104 ± 5%

## CC(C)C[C@H](NC(=O)[C@H](CCCNC(=N)N)NC(=O)CNC(=O)CNC(=O)[C@@H](N)CCCNC(=N)N)C(=O)N[C@H]1CSSC[C@@H](C(=O)N[C@H](C(=O)NCC(=O)N[C@@H](CCCNC(=N)N)C(N)=O)C(C)C)NC(=O)[C@H](Cc2ccccc2)NC(=O)[C@@H]2CSSC[C@H](NC(=O)[C@H](Cc3ccc(O)cc3)NC1=O)C(=O)N[C@@H](Cc1c[nH]cn1)C(=O)N[C@H](Cc1ccccc1)C(=O)N[C@@H](CCCNC(=N)N)C(=O)N[C@@H](Cc1c[nH]c3ccccc13)C(=O)N2 [Pr4LP3] (H-RGGRLCYCH[dF]RWCFCVGR-NH2; disulfide 6-15, 8-13)
[2]
  EC50: 200 nM
[2]; [3]
  Emax: 99 ± 6%

## CC(C)[C@@H]1NC(=O)[C@H](CCCNC(=N)N)NC(=O)[C@H](Cc2ccccc2)NC(=O)[C@@H](NC(=O)[C@H](Cc2c[nH]c3ccccc23)NC(=O)[C@@H](N)CCCCN)CSSC[C@@H](C(=O)N[C@@H](CCCNC(=N)N)C(N)=O)NC(=O)[C@H](CCCNC(=N)N)NC(=O)[C@H](CCCNC(=N)N)NC(=O)[C@H](Cc2ccc(O)cc2)NC(=O)[C@@H]2CSSC[C@H](NC1=O)C(=O)N1CCC[C@H]1C(=O)N[C@@H](Cc1c[nH]cn1)C(=O)N[C@H](Cc1ccccc1)C(=O)N[C@@H](Cc1c[nH]cn1)C(=O)N[C@@H](Cc1c[nH]c3ccccc13)C(=O)N2 [Ta1LP1] (H-KWCFRVCPH[dF]HWCYRRCR-NH2; disulfide 3-17, 7-13)
[2]
  EC50: 20 nM
[2]; [3]
  Emax: 97 ± 4%

B1: arenicin-3-like peptide 3 (peptide)
peptide: GFCWYVCVPH[dF]HWRVCYRRCN-NH2
modifications: disulfide 7-16, 3-20; N-terminus assumed
SMILES: CC(C)[C@@H]1NC(=O)[C@H](CCCNC(=N)N)NC(=O)[C@H](Cc2c[nH]c3ccccc23)NC(=O)[C@H](Cc2c[nH]cn2)NC(=O)[C@@H](Cc2ccccc2)NC(=O)[C@H](Cc2c[nH]cn2)NC(=O)[C@@H]2CCCN2C(=O)[C@H](C(C)C)NC(=O)[C@@H]2CSSC[C@H](NC1=O)C(=O)N[C@@H](Cc1ccc(O)cc1)C(=O)N[C@@H](CCCNC(=N)N)C(=O)N[C@@H](CCCNC(=N)N)C(=O)N[C@H](C(=O)N[C@@H](CC(N)=O)C(N)=O)CSSC[C@H](NC(=O)[C@H](Cc1ccccc1)NC(=O)CN)C(=O)N[C@@H](Cc1c[nH]c3ccccc13)C(=O)N[C@@H](Cc1ccc(O)cc1)C(=O)N[C@@H](C(C)C)C(=O)N2
[1]
  cAMP accumulation (Cisbio HTRF) in HEK293 cells transiently expressing mouse MC4R-EGFP: EC50: 1000 nM
  cAMP accumulation (Cisbio HTRF) in HEK293 cells transiently expressing mouse MC4R-EGFP: Emax (normalised to NDP-α-MSH): 117%

B2: tachyplesin-1-like peptide 1 (peptide)
peptide: KWCFRVCPH[dF]HWCYRRCR-NH2
modifications: disulfide 7-13, 3-17; N-terminus assumed
SMILES: CC(C)[C@@H]1NC(=O)[C@H](CCCNC(=N)N)NC(=O)[C@H](Cc2ccccc2)NC(=O)[C@@H](NC(=O)[C@H](Cc2c[nH]c3ccccc23)NC(=O)[C@@H](N)CCCCN)CSSC[C@@H](C(=O)N[C@@H](CCCNC(=N)N)C(N)=O)NC(=O)[C@H](CCCNC(=N)N)NC(=O)[C@H](CCCNC(=N)N)NC(=O)[C@H](Cc2ccc(O)cc2)NC(=O)[C@@H]2CSSC[C@H](NC1=O)C(=O)N1CCC[C@H]1C(=O)N[C@@H](Cc1c[nH]cn1)C(=O)N[C@H](Cc1ccccc1)C(=O)N[C@@H](Cc1c[nH]cn1)C(=O)N[C@@H](Cc1c[nH]c3ccccc13)C(=O)N2
[1]
  cAMP accumulation (Cisbio HTRF) in HEK293 cells transiently expressing mouse MC4R-EGFP: EC50: 20 nM
  cAMP accumulation (Cisbio HTRF) in HEK293 cells transiently expressing mouse MC4R-EGFP: Emax (normalised to NDP-α-MSH): 97%

B3: tachyplesin-1-like peptide 2 (peptide)
peptide: KWCFRVCH[dF]HWCYRRCR-NH2
modifications: disulfide 7-12, 3-16; N-terminus assumed
SMILES: CC(C)[C@@H]1NC(=O)[C@H](CCCNC(=N)N)NC(=O)[C@H](Cc2ccccc2)NC(=O)[C@@H](NC(=O)[C@H](Cc2c[nH]c3ccccc23)NC(=O)[C@@H](N)CCCCN)CSSC[C@@H](C(=O)N[C@@H](CCCNC(=N)N)C(N)=O)NC(=O)[C@H](CCCNC(=N)N)NC(=O)[C@H](CCCNC(=N)N)NC(=O)[C@H](Cc2ccc(O)cc2)NC(=O)[C@@H]2CSSC[C@H](NC1=O)C(=O)N[C@@H](Cc1c[nH]cn1)C(=O)N[C@H](Cc1ccccc1)C(=O)N[C@@H](Cc1c[nH]cn1)C(=O)N[C@@H](Cc1c[nH]c3ccccc13)C(=O)N2
[1]
  cAMP accumulation (Cisbio HTRF) in HEK293 cells transiently expressing mouse MC4R-EGFP: EC50: 48 nM
  cAMP accumulation (Cisbio HTRF) in HEK293 cells transiently expressing mouse MC4R-EGFP: Emax (normalised to NDP-α-MSH): 97%

B4: tachyplesin-1-like peptide 3 (peptide)
peptide: KWCFRVCH[dF]RWCYRRCR-NH2
modifications: disulfide 7-12, 3-16; N-terminus assumed
SMILES: CC(C)[C@@H]1NC(=O)[C@H](CCCNC(=N)N)NC(=O)[C@H](Cc2ccccc2)NC(=O)[C@@H](NC(=O)[C@H](Cc2c[nH]c3ccccc23)NC(=O)[C@@H](N)CCCCN)CSSC[C@@H](C(=O)N[C@@H](CCCNC(=N)N)C(N)=O)NC(=O)[C@H](CCCNC(=N)N)NC(=O)[C@H](CCCNC(=N)N)NC(=O)[C@H](Cc2ccc(O)cc2)NC(=O)[C@@H]2CSSC[C@H](NC1=O)C(=O)N[C@@H](Cc1c[nH]cn1)C(=O)N[C@H](Cc1ccccc1)C(=O)N[C@@H](CCCNC(=N)N)C(=O)N[C@@H](Cc1c[nH]c3ccccc13)C(=O)N2
[1]
  cAMP accumulation (Cisbio HTRF) in HEK293 cells transiently expressing mouse MC4R-EGFP: EC50: 17 nM
  cAMP accumulation (Cisbio HTRF) in HEK293 cells transiently expressing mouse MC4R-EGFP: Emax (normalised to NDP-α-MSH): 98%

From publication PMC10580383, “Development of Melanocortin 4 Receptor Agonists by Exploiting Animal-Derived Macrocyclic, Disulfide-Rich Peptide Scaffolds” (ACS Pharmacology & Translational Science, 2023)
